The source of these data is patent publication US20250099448A1, “HETEROCYCLIC COMPOUNDS” (Hoffmann-La Roche Inc., priority 2022, published 2025).

The test addresses T1, MAGL protein (Homo sapiens, UniProt Q99685).
T1 sequence (Q99685 1-303): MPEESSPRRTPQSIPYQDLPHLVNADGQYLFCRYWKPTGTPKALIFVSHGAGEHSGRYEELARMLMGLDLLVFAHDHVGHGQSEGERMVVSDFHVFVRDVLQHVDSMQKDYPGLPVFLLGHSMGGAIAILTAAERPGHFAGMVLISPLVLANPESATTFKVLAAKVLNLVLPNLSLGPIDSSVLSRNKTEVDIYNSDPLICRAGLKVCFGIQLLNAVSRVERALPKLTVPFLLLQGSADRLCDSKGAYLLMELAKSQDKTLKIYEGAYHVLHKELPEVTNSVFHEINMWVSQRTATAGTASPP
Nature of the test: 2-AG assay: MAGL inhibitory activity by hydrolysis of 2-arachidonoylglycerol to arachidonic acid, followed by mass spectrometry. It counts as biochemical. As to conditions: 8 μM 2-arachidonoylglycerol, 15 min preincubation, 30 min reaction at RT, RapidFire MS readout. The procedure, abridged:
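Activity was measured by RapidFire SPE–triple-quad MS as the ratio of arachidonic acid to d8-arachidonic acid after 2-AG hydrolysis (8 μM substrate, 30 min, RT, acetonitrile quench). Compounds, tested from 12.5 μM down to […], were first preincubated 15 min with MAGL in TRIS/EDTA/Tween-20 buffer containing 2.5% DMSO.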

Structures are written as SMILES.

In turn, `O=C(N1CCC(OCc2ccc(OC(F)(F)F)cc2F)CC1)N1CC2(CC(c3nc(C4CC4)n[nH]3)C2)C1` [compound 905] came in with an IC50 of 5.92 nM.
For `CS(=O)(=O)c1ccccc1C12CC(C3CN(C(=O)N4CC5(CC(c6nc(C7CC7)n[nH]6)C5)C4)C3)(C1)C2` [compound 909] the value was 0.51 nM.
For `COC(=O)c1ccc(CC2CC3(C2)CN(C(=O)N2CC4(CC(c5nc(C6CC6)n[nH]5)C4)C2)C3)cc1OC(F)(F)F` [compound 911] the value was 0.03 nM; for `COC(=O)c1cc(CC2CC3(C2)CN(C(=O)N2CC4(CC(c5nc(C6CC6)n[nH]5)C4)C2)C3)ccc1OC(F)(F)F` [compound 912], 0.07 nM.
For `NC(=O)c1ccc(CC2CC3(C2)CN(C(=O)N2CC4(CC(c5nc(C6CC6)n[nH]5)C4)C2)C3)cc1OC(F)(F)F` [compound 913] the value was 0.44 nM; for `NC(=O)c1cc(CC2CC3(C2)CN(C(=O)N2CC4(CC(c5nc(C6CC6)n[nH]5)C4)C2)C3)ccc1OC(F)(F)F` [compound 914], 0.27 nM.
Take `CP(C)(=O)c1ccc(CC2CC3(C2)CN(C(=O)N2CC4(CC(c5nnc(C6CC6)[nH]5)C4)C2)C3)cc1` [compound 926]: 6.58 nM corresponded to half-maximal inhibition (IC50).
The value for `O=C(N1CC2(CCC(Cc3ccc(C(F)(F)F)cn3)C2)C1)N1CC2(CC(c3nc(C4(O)CC4)n[nH]3)C2)C1` (stereo not shown) [compound 927] was 2.51 nM; that for `O=C(N1CC(C23CC(Cc4nnc(C5CC5)o4)(C2)C3)C1)N1CC2(CC(c3nc(C4CC4)n[nH]3)C2)C1` [compound 928] was 2.53 nM; that for `O=C(N1CC2(CCC(Cc3ncc(F)cc3F)C2)C1)N1CC2(CC(c3nc(C4(O)CC4)n[nH]3)C2)C1` (stereo not shown) [compound 929] was 3.85 nM.
The value for `O=C(N1CC(c2ccc(-n3cnc(C(F)(F)F)n3)cc2)C1)N1CC2(CC(c3nnc(C4CC4)[nH]3)C2)C1` [compound 930] was 0.39 nM.
The value for `O=C(N1CC(c2ccc(-n3cnc(C4CC4)n3)cc2)C1)N1CC2(CC(c3nnc(C4CC4)[nH]3)C2)C1` [compound 934] was 4.44 nM; that for `O=C(N1CC2(CC(c3nnc(C4CC4)[nH]3)C2)C1)N1CC2(C1)CN(c1cncc(F)c1)C2` [compound 936] was 138 nM; that for `O=C(N1CC(c2ccc(N3CC4(CCCC4)C3)nc2)C1)N1CC2(CC(c3nc(C4(O)CC4)n[nH]3)C2)C1` [compound 937] was 1.58 nM.
In turn, `O=C(N1CC2(CC(c3nnc(C4CC4)[nH]3)C2)C1)N1CC2(CC(c3ccc(C(F)(F)F)cc3F)C2)C1` [compound 938] displayed an IC50 of 0.29 nM.
For `CS(=O)(=O)c1ccc(C2CC3(C2)CN(C(=O)N2CC4(CC(c5nnc(C6CC6)[nH]5)C4)C2)C3)cc1` [compound 939] the value was 3.41 nM; for `O=C(N1CC2(CC(c3ccc(C(F)(F)F)cc3)C2)C1)N1CC2(CC(c3nnc(C4CC4)[nH]3)C2)C1` [compound 940], 0.58 nM; for `O=C(N1CC(C23CC(COc4ccc(C(F)(F)F)cn4)(C2)C3)C1)N1CC2(CC(c3nc(C4CC4)n[nH]3)C2)C1` [compound 941], 0.04 nM.
For `O=C(N1CC(C23CC(COc4cc(C(F)(F)F)ccn4)(C2)C3)C1)N1CC2(CC(c3nc(C4CC4)n[nH]3)C2)C1` [compound 942] the value was 1.32 nM; for `COc1nc(C(F)(F)F)cnc1CC1CC2(C1)CN(C(=O)N1CC3(CC(c4nc(C5CC5)n[nH]4)C3)C1)C2` [compound 943], 0.09 nM.
The value for `O=C(N1CC2(CC(c3nc(C4CC4)n[nH]3)C2)C1)N1CC2(CC(C(F)(F)c3cnc(C(F)(F)F)cn3)C2)C1` [compound 944] was 0.96 nM.
For the molecule `O=C(N1CC2(CC(Cc3cc(C4(C(F)(F)F)CC4)[nH]n3)C2)C1)N1CC2(CC(c3nc(C4CC4)n[nH]3)C2)C1` [compound 945], the IC50 came to 0.07 nM.
With `O=C(N1CC(C23CC(Cn4cc(C(F)(F)F)ccc4=O)(C2)C3)C1)N1CC2(CC(c3nc(C4CC4)n[nH]3)C2)C1` [compound 946], inhibition was half-maximal at 1.05 nM (IC50).
The value for `O=C(N1CC(C23CC(Cn4ccc(C(F)(F)F)cc4=O)(C2)C3)C1)N1CC2(CC(c3nc(C4CC4)n[nH]3)C2)C1` [compound 947] was 9.12 nM; that for `O=C(N1CC(C23CC(Cn4cc(C(F)(F)F)cn4)(C2)C3)C1)N1CC2(CC(c3nc(C4CC4)n[nH]3)C2)C1` [compound 949] was 0.16 nM.
For `N=S(=O)(c1cnn(CC2CC3(C2)CN(C(=O)N2CC4(CC(c5nc(C6CC6)n[nH]5)C4)C2)C3)c1)C(F)(F)F` (stereo not shown) [compound 950] the value was 3.03 nM; for `O=C(N1CC2(CC(Cn3cc(S(=O)(=O)C(F)(F)F)cn3)C2)C1)N1CC2(CC(c3nc(C4CC4)n[nH]3)C2)C1` [compound 951], 0.28 nM.
The value for `CS(=N)(=O)c1ccc(CC2CC3(C2)CN(C(=O)N2CC4(CC(c5nc(C6CC6)n[nH]5)C4)C2)C3)cc1C(F)(F)F` (stereo not shown) [compound 952] was 1.74 nM.
Consider `CS(=O)(=O)c1cnn(CC2CC3(C2)CN(C(=O)N2CC4(CC(c5nc(C6CC6)n[nH]5)C4)C2)C3)c1` [compound 953], for which the IC50 stood at 11.2 nM.
Take `O=C(N1CC2(CC(Cc3c[nH]c(=O)c(C(F)F)c3)C2)C1)N1CC2(CC(c3nc(C4CC4)n[nH]3)C2)C1` [compound 954]: 1.42 nM corresponded to half-maximal inhibition (IC50).
The value for `O=C(N1CC2(CC(Cc3cc(C(F)F)c[nH]c3=O)C2)C1)N1CC2(CC(c3nc(C4CC4)n[nH]3)C2)C1` [compound 956] was 1.48 nM; that for `O=C(N1CC2(CC(c3nc(C4CC4)n[nH]3)C2)C1)N1CC2(CN(Cc3noc(C(F)(F)F)n3)C2)C1` [compound 957] was 97.3 nM.
For `O=C(N1CC2(CC(c3nc(C4CC4)n[nH]3)C2)C1)N1CC2(CN(Cc3nc(C4(C(F)(F)F)CC4)no3)C2)C1` [compound 959], the IC50 is 7.44 nM.
The value for `O=C(N1CC2(CC(Cn3cc(C(F)(F)F)ncc3=O)C2)C1)N1CC2(CC(c3nc(C4CC4)n[nH]3)C2)C1` [compound 960] was 5.16 nM.
For `O=C(N1CC2(CC(Cc3ncn(CC(F)(F)F)n3)C2)C1)N1CC2(CC(c3nc(C4CC4)n[nH]3)C2)C1` [compound 962] the value was 4.41 nM; for `O=C(N1CC2(CC(c3nc(C4CC4)n[nH]3)C2)C1)N1CC2(CN(Cc3ccc(OCC(F)(F)F)nc3)C2)C1` [compound 963], 3.95 nM; for `O=C(N1CC2(CC(Cn3cncc3C3(C(F)(F)F)CC3)C2)C1)N1CC2(CC(c3nc(C4CC4)n[nH]3)C2)C1` [compound 964], 0.44 nM.
Consider `CC(C)Oc1nc(CC2CC3(C2)CN(C(=O)N2CC4(CC(c5nc(C6CC6)n[nH]5)C4)C2)C3)ccc1C(F)(F)F` [compound 965], for which half-maximal inhibition (IC50) was put at 0.03 nM.
For `Cc1cc([C@@H](C)C2CC3(C2)CN(C(=O)N2CC4(CC(c5nc(C6CC6)n[nH]5)C4)C2)C3)ncc1C(F)(F)F` [compound 966] the value was 0.14 nM; for `Cc1cc([C@H](C)C2CC3(C2)CN(C(=O)N2CC4(CC(c5nc(C6CC6)n[nH]5)C4)C2)C3)ncc1C(F)(F)F` [compound 967], 0.18 nM; for `O=C(N1CC(c2ccc(C3(S(=O)(=O)C(F)(F)F)CC3)cc2)C1)N1CC2(CC(c3nc(C4CC4)n[nH]3)C2)C1` [compound 968], 0.05 nM.
For `O=C(N1CC2(CC(Oc3cc(C(F)(F)F)ccn3)C2)C1)N1CC2(CC(c3nc(C4CC4)n[nH]3)C2)C1` [compound 969] the value was 0.42 nM.
The value for `O=C(N1CC2(CC(COc3ccc(C(F)(F)F)cn3)C2)C1)N1CC2(CC(c3nc(C4CC4)n[nH]3)C2)C1` [compound 970] was 0.16 nM.
